# In article PMC8175350, “Drug repurposing screens identify chemical entities for the development of COVID-19 interventions” (Nature Communications, 2021):
# pEC50: −log10 of the molar value. Counter-ions that a name gives are not always drawn. Like-named read-outs stand apart in the source and are kept apart here.
# Assays:
# [1] = test system: SARS-CoV-2; assay: microbe, parasite or virus in culture; type: cell-based; conditions: for Emax: Severe acute respiratory syndrome coronavirus 2, HeLa-ACE2, 24 h, read-out: HeLa-ACE2 CoV-2 Sinf Average; for pEC50: read-out: HeLa-ACE2 CoV-2 EC50 GeoMean; for HeLa-ACE2 SI: selectivity index, uninfected HeLa-ACE2 CC50 / SARS-CoV-2 EC50
# [2] = Uninfected HeLa-ACE2 24 h live/dead cytotoxicity counter screen; type: cell-based, human; conditions: human, uninfected HeLa-ACE2 cells; read-out: HeLa-ACE2 uninfected cytotoxicity CC50 GeoMean
# [3] = test system: HeLa-ACE2 cells; assay: as above; type: cell-based, human; conditions: human, uninfected HeLa-ACE2 cells, 24 h
# [4] = test system: SARS-CoV-2; assay: microbe, parasite or virus in culture; type: cell-based; conditions: for Emax: Severe acute respiratory syndrome coronavirus 2, Calu-3, 48 h, read-out: Calu-3 CoV-2 Sinf Average; for pEC50: read-out: Calu-3 CoV-2 EC50 GeoMean; for Calu-3 SI: selectivity index, uninfected Calu-3 CC50 / SARS-CoV-2 EC50
# [5] = test system: SARS-CoV-2; assay: microbe, parasite or virus in culture; type: cell-based; conditions: for Emax: Severe acute respiratory syndrome coronavirus 2, HeLa-ACE2, 10 h, read-out: HeLa-ACE2 TOA CoV-2 Sinf Average; for pEC50: read-out: HeLa-ACE2 TOA CoV-2 EC50 GeoMean
# [6] = test system: SARS-CoV-2; type: cell-based; conditions: combination with remdesivir
# [7] = test system: HeLa-ACE2 cells; assay: Total cell count in the HeLa-ACE2 TOA (time of addition) assay; type: cell-based, human; conditions: for pEC50: Homo sapiens, HeLa-ACE2, read-out: HeLa-ACE2 TOA cell count EC50 GeoMean
# [8] = test system: Calu-3 cells; conditions: for Calu-3 uninfected cytotoxicity Sinf Average: human, 48 h
# [9] = test system: HepG2; conditions: human, 72 h
# [10] = test system: HEK293T; conditions: human, 72 h
# [11] = test system: HeLa-ACE2 cells; assay: cells; conditions: Homo sapiens; for pEC50: HeLa-ACE2, read-out: HeLa-ACE2 cell count EC50 GeoMean; for Emax: HeLa-ACE2, 24 h, read-out: HeLa-ACE2 cell count Sinf Average
# [12] = test system: Calu-3 cells; assay: cells; conditions: Homo sapiens; for pEC50: Calu-3, read-out: Calu-3 cell count EC50 GeoMean; for Emax: Calu-3, 48 h, read-out: Calu-3 cell count Sinf Average
# [13] = in vitro; conditions: human, Calu-3 uninfected cytotoxicity CC50 GeoMean
# [14] = HepG2 72 h CellTiter-Glo cytotoxicity; conditions: human, HepG2 cells
# [15] = test system: HepG2; assay: HepG2 72 h CellTiter-Glo cytotoxicity; conditions: 72 h
# [16] = HEK293T 72 h CellTiter-Glo cytotoxicity; conditions: human, HEK293T cells
# [17] = test system: HEK293T; assay: HEK293T 72 h CellTiter-Glo cytotoxicity; conditions: 72 h
# [18] = Uninfected Calu-3 48 h Cell-Titer Glo cytotoxicity counter screen; conditions: human, uninfected Calu-3 cells, Calu-3 uninfected cytotoxicity CC50 GeoMean
# [19] = test system: Calu-3 cells; assay: as above; conditions: human, uninfected Calu-3 cells, 48 h
# [20] = Severe acute respiratory syndrome coronavirus 2, HeLa-ACE2, detail column
# [21] = Severe acute respiratory syndrome coronavirus 2, Calu-3
# [22] = Severe acute respiratory syndrome coronavirus 2, Calu-3, detail column
# [23] = Severe acute respiratory syndrome coronavirus 2, HeLa-ACE2
structure (smiles),measurement,setting,value
CCN(CC)CCCNc1ccnc2cc(Cl)ccc12 [AQ-13],Emax,[1],101%
same,pEC50,[1]; [20],6.10
same,HeLa-ACE2 SI,[1],32.34
same,CC50 at 24 h,[2],25.9 µM
same,HeLa-ACE2 uninfected cytotoxicity Sinf Average,[3],-100%
same,Emax,[4],100%
same,pEC50,[4]; [21],< 5.00
same,TOA:HeLa-ACE2 EC50 Ratio,[5],12.002
same,Emax,[5],100%
same,pEC50,[5]; [20],< 5.02
same,HeLa-ACE2 synergy score with remdesivi,[6],-1.765 δ
same,pEC50,[7],< 5.02
same,uninfected Calu-3 CC50,[8],> 29.255 ×÷ 1.046 (n=4) μM
same,Calu-3 uninfected cytotoxicity Sinf Average,[8],-100%
same,HepG2 72-hour cytotoxicity Sinf Average,[9],-100%
same,HEK293T 72-hour cytotoxicty Sinf Average,[10],-100%
same,pEC50,[11],< 5.02
same,pEC50,[12],< 5.00
same,CC50 at 48 h,[13],> 29.3 µM
CCCCC1CCc2cc(O)cc3c(CCN4CCN(c5cc(C)ccn5)CC4)c(C)n1c23 (centres unmarked) [KC 11404],Emax,[1],100%
same,pEC50,[1]; [20],5.60
same,HeLa-ACE2 SI,[1],> 8.39
same,CC50 at 24 h,[2],> 20.9 µM
same,HeLa-ACE2 uninfected cytotoxicity Sinf Average,[3],-100%
same,Emax,[4],100%
same,pEC50,[4]; [22],5.10
same,Calu-3 SI,[4],1.59
same,TOA:HeLa-ACE2 EC50 Ratio,[5],0.864
same,Emax,[5],100%
same,pEC50,[5]; [23],5.67
same,HeLa-ACE2 synergy score with remdesivi,[6],-2.817 δ
same,HeLa-ACE2 TOA cell count Sinf Average,[7],100%
same,pEC50,[7],< 5.02
same,uninfected Calu-3 CC50,[8],12.778 ×÷ 1.123 (n=3) μM
same,Calu-3 uninfected cytotoxicity Sinf Average,[8],-100%
same,HepG2 72-hour cytotoxicity Sinf Average,[9],-101%
same,HEK293T 72-hour cytotoxicty Sinf Average,[10],-100%
same,Emax,[11],100%
same,pEC50,[11],< 5.02
same,pEC50,[12],< 5.00
same,CC50 at 48 h,[13],12.8 µM
OC(CNCC(O)C1CCc2cc(F)ccc2O1)C1CCc2cc(F)ccc2O1 (centres unmarked) [Nebivolol HCl],Emax,[1],99%
same,pEC50,[1]; [20],5.53
same,HeLa-ACE2 SI,[1],> 3.75
same,CC50 at 24 h,[2],> 11.1 µM
same,HeLa-ACE2 uninfected cytotoxicity Sinf Average,[3],-103%
same,Emax,[4],100%
same,pEC50,[4]; [22],< 5.06
same,Calu-3 SI,[4],< 1.57
same,TOA:HeLa-ACE2 EC50 Ratio,[5],0.619
same,Emax,[5],98%
same,pEC50,[5]; [23],5.74
same,HeLa-ACE2 TOA cell count Sinf Average,[7],70%
same,pEC50,[7],< 5.34
same,Emax,[11],100%
same,pEC50,[11],< 5.04
same,pEC50,[12],< 5.00
same,CC50 at 72 h,[14],7.62 µM
same,HepG2 72-hour cytotoxicity Sinf Average,[15],-99%
same,CC50 at 72 h,[16],5.57 µM
same,HEK293T 72-hour cytotoxicty Sinf Average,[17],-106%
same,CC50 at 48 h,[18],13.6 µM
same,Calu-3 uninfected cytotoxicity Sinf Average,[19],-100%
CCCCN1CC[C@H](c2ccc(N(C)C)cc2)[C@@H](COc2ccc(C(F)(F)F)cc2)C1 [NNC 090026],Emax,[1],94%
same,pEC50,[1]; [20],5.56
same,HeLa-ACE2 SI,[1],> 5.59
same,CC50 at 24 h,[2],> 15.4 µM
same,HeLa-ACE2 uninfected cytotoxicity Sinf Average,[3],-100%
same,Emax,[4],100%
same,pEC50,[4]; [22],< 5.08
same,Calu-3 SI,[4],> 2.83
same,TOA:HeLa-ACE2 EC50 Ratio,[5],1.737
same,Emax,[5],100%
same,pEC50,[5]; [23],5.32
same,pEC50,[7],< 5.02
same,uninfected Calu-3 CC50,[8],> 23.525 ×÷ 1.612 (n=4) μM
same,Calu-3 uninfected cytotoxicity Sinf Average,[8],-100%
same,HepG2 72-hour cytotoxicity Sinf Average,[9],-100%
same,HEK293T 72-hour cytotoxicty Sinf Average,[10],-100%
same,Emax,[11],96%
same,pEC50,[11],< 5.05
same,pEC50,[12],< 5.00
same,CC50 at 48 h,[13],> 23.5 µM
Cc1c(-c2ccc(O)cc2)n(Cc2ccc(OCCN3CCCCCC3)cc2)c2ccc(O)cc12 [Bazedoxifene acetate],Emax,[1],100%
same,pEC50,[1]; [23],5.54
same,CC50 at 24 h,[2],> 20.7 µM
same,Emax,[4],94%
same,pEC50,[4]; [21],< 5.11
same,Emax,[5],100%
same,pEC50,[5]; [23],< 5.35
same,pEC50,[7],< 5.02
same,Emax,[11],100%
same,pEC50,[11],< 5.07
same,pEC50,[12],< 5.00
same,CC50 at 72 h,[14],3.21 µM
same,HepG2 72-hour cytotoxicity Sinf Average,[15],-99%
same,CC50 at 72 h,[16],9.19 µM
same,HEK293T 72-hour cytotoxicty Sinf Average,[17],-106%
same,CC50 at 48 h,[18],10.6 µM
Nc1nc(Nc2ccc3c(c2)CC[C@@H](N2CCCC2)CC3)nn1-c1cc2c(nn1)-c1ccccc1CCC2 [BGB324],Emax,[1],98%
same,pEC50,[1]; [20],5.92
same,HeLa-ACE2 SI,[1],13.05
same,CC50 at 24 h,[2],15.7 µM
same,HeLa-ACE2 uninfected cytotoxicity Sinf Average,[3],-101%
same,Emax,[4],100%
same,pEC50,[4]; [22],5.16
same,Calu-3 SI,[4],2.74
same,TOA:HeLa-ACE2 EC50 Ratio,[5],7.782
same,Emax,[5],100%
same,pEC50,[5]; [23],< 5.03
same,HeLa-ACE2 synergy score with remdesivi,[6],7.223 δ
same,pEC50,[7],< 5.02
same,uninfected Calu-3 CC50,[8],19.024 ×÷ 1.18 (n=3) μM
same,Calu-3 uninfected cytotoxicity Sinf Average,[8],-100%
same,HepG2 72-hour cytotoxicity Sinf Average,[9],-105%
same,HEK293T 72-hour cytotoxicty Sinf Average,[10],-102%
same,Emax,[11],100%
same,pEC50,[11],< 5.04
same,Emax,[12],100%
same,pEC50,[12],5.20
same,CC50 at 48 h,[13],19 µM
CC(C)Oc1ccc(-c2nc(-c3cccc4c3CC[C@@H]4NCCO)no2)cc1C#N [Ozanimod],Emax,[1],101%
same,pEC50,[1]; [20],5.58
same,HeLa-ACE2 SI,[1],> 5.60
same,CC50 at 24 h,[2],> 14.7 µM
same,HeLa-ACE2 uninfected cytotoxicity Sinf Average,[3],-101%
same,Emax,[4],97%
same,pEC50,[4]; [22],< 5.11
same,Calu-3 SI,[4],< 1.72
same,TOA:HeLa-ACE2 EC50 Ratio,[5],2.748
same,Emax,[5],100%
same,pEC50,[5]; [23],< 5.14
same,HeLa-ACE2 synergy score with remdesivi,[6],-4.622 δ
same,pEC50,[7],< 5.02
same,uninfected Calu-3 CC50,[8],13.319 ×÷ 1.347 (n=3) μM
same,Calu-3 uninfected cytotoxicity Sinf Average,[8],-100%
same,HepG2 72-hour cytotoxicity Sinf Average,[9],-103%
same,HEK293T 72-hour cytotoxicty Sinf Average,[10],-100%
same,Emax,[11],100%
same,pEC50,[11],< 5.06
same,Emax,[12],100%
same,pEC50,[12],< 5.00
same,CC50 at 48 h,[13],13.3 µM
